Key:
mouse platelets = experiment: Ex vivo platelet assays, mouse platelets in culture (platelet counts, caspase immunoblotting); assay type: cell-based; conditions: qVD.OPh 50 μM with ABT-737 1 μM
Protocol: (A) Expression of Bcl-2 family proteins in platelets. […] (C) ABT-737 triggers caspase activation in platelets. […] (F) Absence of Bak protects platelets against ABT-737.
Cell death was induced with ABT-737 (up to 5 μM, Abbott Laboratories (Oltersdorf et al., 2005 (supra)), etoposide (up to 100 μM, Pharmacia) or staurosporine (10 μM, Sigma); 50 μM qVD.OPh (Enzyme Systems) was also added in some experiments. Cell viability was determined by flow cytometry for cells that exclude propidium iodide or manual counting using a hemacytometer.
Other antibodies for immunoblotting were mouse monoclonal anti-Bcl-xL (2H12; BD), anti-Bcl-2 (clone 7; BD), anti-human Bcl-2 (Bcl-2-100), anti-actin (AC40; Sigma), anti-Bax (2D2 and 5B7; Sigma), anti-Mcl-1 (clone 22: BD); rat monoclonal anti-Mcl-1 (14C11; D Huang, unpublished), rabbit polyclonal anti-Bak (B5897: Sigma), anti-Mcl-1 (Rockland), anti-caspase-3 (585; gift of Y. Lazebnik), anti-cleaved p17 fragment of caspase-3 (AB3623; Chemicon), anti-gelsolin (gift of D Kwiatkowski) (Kothakota et al., Science, 278:294-298, 1997); hamster monoclonal anti-mouse Bcl-2 (3F11; BD). Secondary antibodies included HRP-conjugated anti-rat or anti-hamster IgG (SouthernBiotech), anti-mouse or anti-rabbit IgG (Chemicon), and anti-mouse IgG Fcγ chain specific antibody (Jackson ImmunoResearch). The proteins were detected using Enhanced ChemiLuminescence (ECL; GE Healthcare).
Platelets were counted manually in triplicate using a hemacytometer.

Mcl-1 null MEF cells = experiment: Assay of Mcl-1 null MEF cells (rescue from ABT-737-induced killing, CellTitre-Blue viability); assay type: cell-based, mouse; conditions: positive control, 25 μM final; ABT-737 20 nM final
Protocol: In summary, cells are split on day one in order to have them at a confluency of 60-80% on day two. On day two, the cells are seeded out into assay plates at a density that will ensure they are not confluent by day four of the assay. The assay plates are incubated at room temperature for 20-60 minutes before being transferred to 37° C. so that edge effects are minimized. For the same reason, assay plates are never stacked on top of each other in the incubator. On day three the cells are treated first with either Q-VD or with WEHI library compound. The cells are incubated for a 2 hour period in the presence of the library compounds and are then treated with ABT-737. […] After four hours the level of resorufin is measured.
The protocol for day one was repeated up to the point where the cells were pelleted and the supernatant aspirated off. […] The cells were vortexed and then counted using a haemocytometer. The dilution necessary to achieve a density of 2×10^4 cells ml^−1 (1000 cells per well per 50 μl media) in the required volume was calculated and the dilution performed in 1% FCS FMA. […]
CellTitre-Blue™ was warmed to 37° C. and 10 μl was then added to each well of the assay plates using the Multidrop. The plates were returned to 37° C. for 4 hours before being loaded into the EnVision plate reader. […]

[1] = test system: primary MEFs from wild type, Bcl-x^Plt20/Plt20 or Bcl-x^Plt16/Plt16 mice; experiment: Viability of primary MEFs (PI exclusion) after cell death induction; assay type: cell-based, mouse
Excerpt: FIG. 3 provides a representation of data showing that the Bcl-x^Plt20 and Bcl-x^Plt16 mutations destabilize the Bcl-xL protein (A) Location of the Plt20 and Plt16 mutations on Bcl-xL. The two mutations (in blue) are mapped on the 3-dimensional structure of mouse Bcl-xL (light gray) in complex with a Bim BH3 peptide (red) (1PQ1) (Liu et al. Immunity, 19:341-352, 2003). Y15 (Plt20) is partially solvent exposed, while I182 (Plt16) is completely buried, neither contributing to the BH3 binding groove of Bcl-xL. The structural depiction was prepared using PyMOL (DeLano, W. L. 2002 The PyMOL Molecular Graphics System; http://www.pymol.org). (B) The mutant proteins encoded by the Plt20 and Plt16 alleles of Bcl-x can still bind Bax and Bak. […] Data shown is representative of at least 2 cell lines of each genotype analyzed. […] The viability (determined by PI exclusion) of representative primary MEFs derived from wild type, Bcl-x^Plt20/Plt20 or Bcl-x^Plt16/Plt16 mice after exposure to 50 μg/mL cycloheximide for 0-30 h. […]
FIG. 8 is a graphical representation of data showing the sensitivity of cell lines derived from Bcl-x mutant mice to apoptosis. […] Viability was determined by PI uptake; data represent means±SD of representative cell lines. \-<1% viability. […]

## CC(C)[C@H](NC(=O)c1ccc2ccccc2n1)C(=O)N[C@@H](CC(=O)O)C(=O)COc1c(F)cccc1F [qVD.OPh]
Mouse platelets
  effect of qVD.OPh on ABT-737-induced caspase-3 activation and gelsolin cleavage: partially blocked
Mouse platelets; counted after 1 h
  effect of qVD.OPh on the cytotoxic effect of ABT-737 on mouse platelets in culture: partially ameliorated
Mcl-1 null MEF cells
  rescue of Mcl-1^(-/-) cells from ABT-737-induced apoptosis: can be rescued

## CN[C@@H]1C[C@H]2O[C@@](C)([C@@H]1OC)n1c3ccccc3c3c4c(c5c6ccccc6n2c5c31)C(=O)NC4 [staurosporine]
[1]; staurosporine 10 μM, PI uptake
  sensitivity of wild-type, Bcl-x^Plt20/Plt20 or Bcl-x^Plt16/Plt16 MEFs to staurosporine: equally sensitive

## C[C@@H]1C[C@@H]([C@H](O)CC2CC(=O)NC(=O)C2)C(=O)[C@@H](C)C1 [cycloheximide]
[1]; 50 μg/mL cycloheximide for 0-30 h, PI exclusion
  viability of Bcl-x^Plt20 or Bcl-x^Plt16 MEFs after protein synthesis inhibition: susceptible
